Results reported in patent publication US9562035B2, “Benzamide derivative useful as FASN inhibitors for the treatment of cancer” (Janssen Pharmaceutica NV, priority 2013, dated 2017).

How the values were obtained:
Type in all cases: cell-based
[1] = system: HCV 1b bicistronic subgenomic luciferase reporter replicon clone ET; test: Antiviral Activity Against HCV (replicon cells, luciferase read-out); details: Hepatitis C virus, 72 h; HCV 1b replicon clone ET, 3-day incubation, firefly luciferase read-out
Method: The anti-HCV activity of compounds was tested in cell culture with replicon cells generated using reagents from the Bartenschlager laboratory (the HCV 1b bicistronic subgenomic luciferase reporter replicon clone ET). The protocol included a 3-day incubation of 2500 replicon cells in a 384-well format in a nine-point 1:4 dilution series of the compound. Dose response curves were generated based on the firefly luciferase read-out.

[2] = Cytotoxicity in HeLa cells (ATPlite); details: human, in parallel to RSV assay, read-out: CC50 (Toxicity HeLa Cells)
Method: (§1) Black 96-well clear-bottom microtiter plates (Corning, Amsterdam, The Netherlands) were filled in duplicate using a customized robot system with serial 4-fold dilutions of test compound in a final volume of 50 μl culture medium [RPMI medium without phenol red, 10% FBS, 0.04% gentamycin (50 mg/mL) and 0.5% DMSO]. Then, 100 μl of a HeLa cell suspension (5×10^4 cells/mL) in culture medium was added to each well followed by the addition of 50 μl rgRSV224 (MOI=0.02) virus in culture medium using a multidrop dispenser (Thermo Scientific, Erembodegem, Belgium). rgRSV224 virus is an engineered virus that includes an additional GFP gene (HALLAK, L. K., et. al., “Glycosaminoglycan sulfation requirements for respiratory syncytial virus infection.” J. Virol., 2000, pp 10508-10513, Vol. […]). Medium, virus- and mock-infected controls were included in each test. Cells were incubated at 37° C. in a 5% CO2 atmosphere. Three days post-virus exposure, viral replication was quantified by measuring GFP expression in the cells by a MSM laser microscope (Tibotec, Beerse, Belgium). […] In parallel, test compounds were incubated for three days in a set of white 96-well microtitier plates (Corning) and the cytotoxicity of compounds in HeLa cells was determined by measuring the ATP content of the cells using the ATPlite kit (PerkinElmer, Zaventem, Belgium) according to the manufacturer's instructions. […]

rgRSV224 virus = test: Antiviral Activity Against RSV (GFP expression in HeLa cells); details: human respiratory syncytial virus, 72 h, read-out: EC50 (RSV Antiviral Activity)
Method: as §1

Compound: Cc1ccc(C(=O)N2CCC(c3ccc(-c4cnn(C)c4)cc3)CC2)cc1NC(=O)c1ccc(NC(C)C)nc1 [Compound #32, 6-(isopropylamino)-N-(2-methyl-5-(4-(4-(1-methyl-1H-pyrazol-4-yl)phenyl)piperidine-1-carbonyl)phenyl)nicotinamide]
- EC50 [1]: 14.6 nM
- CC50 at 3 days [2]: > 25000 nM
- EC50 (rgRSV224 virus): 17.7 nM
